Test results reported in PMC6934184, “Selective DNA-PKcs inhibition extends the therapeutic index of localized radiotherapy and chemotherapy” (The Journal of Clinical Investigation, 2019).

Target: T1, PRKCB2 (PKC beta II) (Homo sapiens, UniProt P05771)
T1 construct: purchased Thermo Fisher Scientific (Life Technologies) SelectScreen
Test: SelectScreen Z'LYTE
Assay type: biochemical
Procedure, shortened: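 NU5455 was profiled across the SelectScreen Broad panel of kinase activity and binding assays. Z'LYTE reactions such as CSF1R ran at apparent Km ATP, while the Adapta CAMK1 assay used ATP listed as 10. Values are given as percent.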

T1 sequence (P05771 1-673 isoform P05771-2): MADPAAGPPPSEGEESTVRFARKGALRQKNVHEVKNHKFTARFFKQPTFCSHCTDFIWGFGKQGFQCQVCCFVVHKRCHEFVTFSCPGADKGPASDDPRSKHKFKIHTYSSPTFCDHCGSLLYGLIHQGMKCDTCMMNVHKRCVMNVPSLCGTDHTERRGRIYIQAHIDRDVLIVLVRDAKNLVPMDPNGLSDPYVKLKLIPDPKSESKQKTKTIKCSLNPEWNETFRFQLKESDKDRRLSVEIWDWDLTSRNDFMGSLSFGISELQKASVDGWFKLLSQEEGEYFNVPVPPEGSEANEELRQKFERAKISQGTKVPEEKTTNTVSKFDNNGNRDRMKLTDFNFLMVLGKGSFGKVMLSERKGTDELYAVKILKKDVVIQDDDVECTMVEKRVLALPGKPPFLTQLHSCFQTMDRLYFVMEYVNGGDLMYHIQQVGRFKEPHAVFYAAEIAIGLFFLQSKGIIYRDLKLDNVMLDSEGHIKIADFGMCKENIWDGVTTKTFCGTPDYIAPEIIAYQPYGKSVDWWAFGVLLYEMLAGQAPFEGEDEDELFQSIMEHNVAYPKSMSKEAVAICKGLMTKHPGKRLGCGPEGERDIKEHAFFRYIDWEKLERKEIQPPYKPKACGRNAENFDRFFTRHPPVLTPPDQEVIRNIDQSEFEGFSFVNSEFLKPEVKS

How did the inhibition at 1 µM turn out when CN(C(=O)CN1CCOCC1)c1ccc2sc3c(-c4cccc5c(=O)cc(N6CC7CCC(C6)O7)oc45)cccc3c2c1 [NU5455] was run?
The inhibition at 1 µM was -9.6%.
